Legend:
Test in all cases: KINOMEscan competition binding
Conditions in all cases: compound 10.0 µM
ACVR1 (human) = ACVR1 (human) (UniProt Q04771)
ADCK3 (human) = ADCK3 (human) (UniProt Q8NI60)
AKT2 (human) = AKT2 (human) (UniProt P31751)
CAMK1D (human) = CAMK1D (human) (UniProt Q8IU85)
CAMK2A (human) = CAMK2A (human) (UniProt Q9UQM7)
CDC42BPG (human) = CDC42BPG (human) (UniProt Q6DT37)
CDK4 CCND1 (human) = CDK4 CCND1 (human) (UniProt P11802+P24385)
CDK4 CCND3 (human) = CDK4 CCND3 (human) (UniProt P11802+P30281)
CDKL5 (human) = CDKL5 (human) (UniProt O76039)
CLK3 (human) = CLK3 (human) (UniProt P49761)
EPHA5 (human) = EPHA5 (human) (UniProt P54756)
Chain of EPHA5 (human) (P54756 whole entry, looked up): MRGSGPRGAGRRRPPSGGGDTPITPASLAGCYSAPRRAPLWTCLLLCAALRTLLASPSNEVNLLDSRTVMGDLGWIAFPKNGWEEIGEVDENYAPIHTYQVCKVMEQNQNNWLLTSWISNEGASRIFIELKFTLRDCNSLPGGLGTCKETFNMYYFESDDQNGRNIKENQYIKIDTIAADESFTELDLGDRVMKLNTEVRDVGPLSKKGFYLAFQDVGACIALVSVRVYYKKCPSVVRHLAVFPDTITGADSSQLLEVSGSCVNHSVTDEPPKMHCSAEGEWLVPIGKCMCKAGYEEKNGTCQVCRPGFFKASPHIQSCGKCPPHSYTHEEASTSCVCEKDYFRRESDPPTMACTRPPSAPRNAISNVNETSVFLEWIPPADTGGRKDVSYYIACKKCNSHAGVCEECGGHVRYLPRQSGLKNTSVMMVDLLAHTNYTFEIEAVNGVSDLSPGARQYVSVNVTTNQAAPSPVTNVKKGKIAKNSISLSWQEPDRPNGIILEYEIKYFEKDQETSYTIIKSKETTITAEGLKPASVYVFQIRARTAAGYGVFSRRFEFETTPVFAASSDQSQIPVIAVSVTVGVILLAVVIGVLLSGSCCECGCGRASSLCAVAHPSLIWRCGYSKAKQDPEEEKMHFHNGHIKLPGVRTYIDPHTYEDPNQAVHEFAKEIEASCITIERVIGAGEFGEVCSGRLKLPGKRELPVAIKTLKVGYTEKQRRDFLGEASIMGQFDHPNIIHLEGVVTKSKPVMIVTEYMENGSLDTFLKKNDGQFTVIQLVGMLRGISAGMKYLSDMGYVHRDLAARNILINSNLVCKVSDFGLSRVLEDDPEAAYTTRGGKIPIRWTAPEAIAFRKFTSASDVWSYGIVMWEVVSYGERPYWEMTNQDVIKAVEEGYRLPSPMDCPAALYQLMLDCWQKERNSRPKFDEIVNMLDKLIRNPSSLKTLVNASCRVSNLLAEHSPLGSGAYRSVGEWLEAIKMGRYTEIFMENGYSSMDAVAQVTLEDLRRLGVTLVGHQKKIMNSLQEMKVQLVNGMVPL

FGR (human) = FGR (human) (UniProt P09769)
Chain of FGR (human) (P09769 whole entry, looked up): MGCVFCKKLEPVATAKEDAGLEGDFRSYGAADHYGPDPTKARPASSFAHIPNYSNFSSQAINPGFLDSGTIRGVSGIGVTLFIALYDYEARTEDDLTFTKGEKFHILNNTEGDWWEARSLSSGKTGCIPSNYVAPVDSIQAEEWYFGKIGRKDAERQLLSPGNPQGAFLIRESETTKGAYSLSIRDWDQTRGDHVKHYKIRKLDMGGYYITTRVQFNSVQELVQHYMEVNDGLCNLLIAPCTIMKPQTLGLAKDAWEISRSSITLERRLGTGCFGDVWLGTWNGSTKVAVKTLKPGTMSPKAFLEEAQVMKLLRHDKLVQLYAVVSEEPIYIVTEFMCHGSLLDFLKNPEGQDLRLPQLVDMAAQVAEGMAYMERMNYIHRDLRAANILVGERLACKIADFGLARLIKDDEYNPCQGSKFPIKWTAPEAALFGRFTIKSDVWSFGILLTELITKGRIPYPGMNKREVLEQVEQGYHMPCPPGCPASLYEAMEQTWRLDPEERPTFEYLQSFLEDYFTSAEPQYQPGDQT

GRK7 (human) = GRK7 (human) (UniProt Q8WTQ7)
HIPK4 (human) = HIPK4 (human) (UniProt Q8NE63)
Chain of HIPK4 (human) (Q8NE63 whole entry, looked up): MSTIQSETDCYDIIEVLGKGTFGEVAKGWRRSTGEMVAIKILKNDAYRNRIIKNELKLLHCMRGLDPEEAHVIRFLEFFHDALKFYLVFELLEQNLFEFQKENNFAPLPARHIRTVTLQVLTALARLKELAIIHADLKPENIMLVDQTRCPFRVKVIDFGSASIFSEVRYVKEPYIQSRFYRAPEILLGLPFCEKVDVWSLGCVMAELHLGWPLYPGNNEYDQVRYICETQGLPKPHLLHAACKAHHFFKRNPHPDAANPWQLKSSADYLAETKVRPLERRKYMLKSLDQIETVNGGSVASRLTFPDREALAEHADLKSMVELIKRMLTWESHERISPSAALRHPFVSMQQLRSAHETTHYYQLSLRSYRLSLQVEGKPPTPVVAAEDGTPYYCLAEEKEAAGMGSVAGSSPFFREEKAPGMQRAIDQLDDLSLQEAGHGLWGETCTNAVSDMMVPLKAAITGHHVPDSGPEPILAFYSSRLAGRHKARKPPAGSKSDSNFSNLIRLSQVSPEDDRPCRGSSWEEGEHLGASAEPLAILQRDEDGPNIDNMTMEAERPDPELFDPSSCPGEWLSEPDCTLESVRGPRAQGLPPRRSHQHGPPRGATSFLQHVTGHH

[1] = biological target: JAK1 JH1 catalytic (human) (UniProt P23458)
[2] = biological target: JAK2 JH1 catalytic (human) (UniProt O60674)
Chain of JAK2 JH1 catalytic (human) (O60674 whole entry, looked up): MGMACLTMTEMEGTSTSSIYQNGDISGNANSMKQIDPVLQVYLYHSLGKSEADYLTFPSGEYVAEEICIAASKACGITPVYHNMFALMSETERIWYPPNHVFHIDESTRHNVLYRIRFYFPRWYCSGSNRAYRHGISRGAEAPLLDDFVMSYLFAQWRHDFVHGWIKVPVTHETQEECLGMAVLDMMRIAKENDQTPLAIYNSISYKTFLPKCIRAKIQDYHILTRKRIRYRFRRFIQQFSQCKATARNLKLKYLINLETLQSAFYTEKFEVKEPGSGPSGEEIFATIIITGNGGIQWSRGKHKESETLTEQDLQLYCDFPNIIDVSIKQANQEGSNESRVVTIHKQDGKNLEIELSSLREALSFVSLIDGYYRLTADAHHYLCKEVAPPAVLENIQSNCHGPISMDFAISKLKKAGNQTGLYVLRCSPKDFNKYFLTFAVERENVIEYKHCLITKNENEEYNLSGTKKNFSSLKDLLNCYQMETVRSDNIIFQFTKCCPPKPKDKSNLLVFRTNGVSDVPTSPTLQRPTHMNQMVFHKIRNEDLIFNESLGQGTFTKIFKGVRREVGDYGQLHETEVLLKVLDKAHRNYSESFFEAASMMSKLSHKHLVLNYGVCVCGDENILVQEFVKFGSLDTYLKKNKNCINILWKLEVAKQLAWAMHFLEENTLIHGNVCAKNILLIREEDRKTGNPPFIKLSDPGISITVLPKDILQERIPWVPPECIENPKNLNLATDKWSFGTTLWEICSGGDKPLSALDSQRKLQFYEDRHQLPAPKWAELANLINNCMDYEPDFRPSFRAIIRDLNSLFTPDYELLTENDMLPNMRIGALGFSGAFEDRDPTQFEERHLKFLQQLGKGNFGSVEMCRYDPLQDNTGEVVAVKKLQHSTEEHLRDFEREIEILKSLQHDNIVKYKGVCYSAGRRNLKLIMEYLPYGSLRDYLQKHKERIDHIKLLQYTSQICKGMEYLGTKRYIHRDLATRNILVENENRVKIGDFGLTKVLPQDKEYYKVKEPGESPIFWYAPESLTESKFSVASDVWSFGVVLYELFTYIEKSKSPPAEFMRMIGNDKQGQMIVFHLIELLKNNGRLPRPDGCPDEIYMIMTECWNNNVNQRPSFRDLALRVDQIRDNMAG

[3] = system: KIT (human), P10721 [V559D/V654A]
MAP3K3 (human) = MAP3K3 (human) (UniProt Q99759)
Chain of MAP3K3 (human) (Q99759 whole entry, looked up): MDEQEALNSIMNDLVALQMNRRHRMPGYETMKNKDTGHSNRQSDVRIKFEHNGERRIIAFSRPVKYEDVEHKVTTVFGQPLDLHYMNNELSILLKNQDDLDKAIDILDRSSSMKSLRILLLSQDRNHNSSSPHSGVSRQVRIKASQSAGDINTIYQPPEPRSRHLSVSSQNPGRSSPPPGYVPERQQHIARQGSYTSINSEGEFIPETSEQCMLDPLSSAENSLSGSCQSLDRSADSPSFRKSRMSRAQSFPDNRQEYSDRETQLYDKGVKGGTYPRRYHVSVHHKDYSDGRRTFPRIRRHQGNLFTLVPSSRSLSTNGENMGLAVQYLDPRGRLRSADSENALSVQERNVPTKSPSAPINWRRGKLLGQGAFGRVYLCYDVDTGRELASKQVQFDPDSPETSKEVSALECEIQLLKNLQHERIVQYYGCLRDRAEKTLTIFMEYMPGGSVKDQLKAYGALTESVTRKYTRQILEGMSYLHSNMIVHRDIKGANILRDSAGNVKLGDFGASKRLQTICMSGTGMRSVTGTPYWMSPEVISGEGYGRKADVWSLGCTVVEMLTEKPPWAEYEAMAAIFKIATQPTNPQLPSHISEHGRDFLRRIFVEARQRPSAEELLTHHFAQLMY

MAP3K4 (human) = MAP3K4 (human) (UniProt Q9Y6R4)
MAPK1 (human) = MAPK1 (human) (UniProt P28482)
MAPK6 (human) = MAPK6 (human) (UniProt Q16659)
MARK1 (human) = MARK1 (human) (UniProt Q9P0L2)
MYLK3 (human) = MYLK3 (human) (UniProt Q32MK0)
MYO3A (human) = MYO3A (human) (UniProt Q8NEV4)
NEK1 (human) = NEK1 (human) (UniProt Q96PY6)
NTRK2 (human) = NTRK2 (human) (UniProt Q16620)
PI4KB (human) = PI4KB (human) (UniProt Q9UBF8)
PIM3 (human) = PIM3 (human) (UniProt Q86V86)
PRKACA (human) = PRKACA (human) (UniProt P17612)
PRKCQ (human) = PRKCQ (human) (UniProt Q04759)
PTK2B (human) = PTK2B (human) (UniProt Q14289)
RIOK3 (human) = RIOK3 (human) (UniProt O14730)
Chain of RIOK3 (human) (O14730 whole entry, looked up): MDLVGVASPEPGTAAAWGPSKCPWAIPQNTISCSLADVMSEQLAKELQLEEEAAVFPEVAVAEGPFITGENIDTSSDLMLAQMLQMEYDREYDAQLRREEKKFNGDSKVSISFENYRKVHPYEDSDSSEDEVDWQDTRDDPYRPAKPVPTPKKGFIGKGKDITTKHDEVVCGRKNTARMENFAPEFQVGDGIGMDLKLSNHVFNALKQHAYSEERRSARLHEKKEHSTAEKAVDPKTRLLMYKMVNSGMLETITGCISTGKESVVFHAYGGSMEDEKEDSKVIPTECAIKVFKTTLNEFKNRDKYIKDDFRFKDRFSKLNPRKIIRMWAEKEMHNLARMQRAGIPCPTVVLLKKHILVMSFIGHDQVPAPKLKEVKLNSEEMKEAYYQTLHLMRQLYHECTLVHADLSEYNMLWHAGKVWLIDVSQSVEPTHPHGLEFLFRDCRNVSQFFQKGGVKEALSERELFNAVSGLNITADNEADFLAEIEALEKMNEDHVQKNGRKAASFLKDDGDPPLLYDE

RPS6KA5 KD2 (human) = RPS6KA5 KD2 (human) (UniProt O75582)
RPS6KA6 KD2 (human) = RPS6KA6 KD2 (human) (UniProt Q9UK32)
RPS6KB1 (human) = RPS6KB1 (human) (UniProt P23443)
STK32B (human) = STK32B (human) (UniProt Q9NY57)
STK39 (human) = STK39 (human) (UniProt Q9UEW8)
STK4 (human) = STK4 (human) (UniProt Q13043)
Chain of STK4 (human) (Q13043 whole entry, looked up): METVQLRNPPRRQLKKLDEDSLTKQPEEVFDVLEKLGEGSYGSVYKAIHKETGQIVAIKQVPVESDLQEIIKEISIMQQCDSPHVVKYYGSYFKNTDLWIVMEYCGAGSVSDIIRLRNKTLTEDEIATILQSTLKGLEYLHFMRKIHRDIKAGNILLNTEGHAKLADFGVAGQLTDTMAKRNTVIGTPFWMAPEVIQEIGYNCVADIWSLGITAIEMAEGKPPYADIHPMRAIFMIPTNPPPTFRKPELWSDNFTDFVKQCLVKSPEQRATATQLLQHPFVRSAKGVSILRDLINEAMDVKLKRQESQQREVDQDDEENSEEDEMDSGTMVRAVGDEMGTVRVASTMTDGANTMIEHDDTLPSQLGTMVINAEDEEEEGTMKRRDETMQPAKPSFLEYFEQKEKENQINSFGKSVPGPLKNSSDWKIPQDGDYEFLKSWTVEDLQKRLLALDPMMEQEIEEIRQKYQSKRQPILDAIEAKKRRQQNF

VRK2 (human) = VRK2 (human) (UniProt Q86Y07)
WEE2 (human) = WEE2 (human) (UniProt P0C1S8)

COc1ccc(N(C(=O)Oc2c(C)cccc2C)c2ccnc(Nc3ccc(N4CCN(C)CC4)cc3)n2)c(OC)c1
kinase still bound, per cent of control (ACVR1 (human)): 0% | kinase still bound, per cent of control (ADCK3 (human)): 26% | kinase still bound, per cent of control (AKT2 (human)): 100% | kinase still bound, per cent of control (CAMK1D (human)): 100% | kinase still bound, per cent of control (CAMK2A (human)): 84% | kinase still bound, per cent of control (CDC42BPG (human)): 0.45% | kinase still bound, per cent of control (CDK4 CCND1 (human)): 5.4% | kinase still bound, per cent of control (CDK4 CCND3 (human)): 26% | kinase still bound, per cent of control (CDKL5 (human)): 100% | kinase still bound, per cent of control (CLK3 (human)): 88% | kinase still bound, per cent of control (EPHA5 (human)): 0.15% | kinase still bound, per cent of control (FGR (human)): 0.15% | kinase still bound, per cent of control (GRK7 (human)): 72% | kinase still bound, per cent of control (HIPK4 (human)): 8.8% | kinase still bound, per cent of control [1]: 36% | kinase still bound, per cent of control [2]: 35% | kinase still bound, per cent of control [3]: 85% | kinase still bound, per cent of control (MAP3K3 (human)): 0.75% | kinase still bound, per cent of control (MAP3K4 (human)): 23% | kinase still bound, per cent of control (MAPK1 (human)): 87% | kinase still bound, per cent of control (MAPK6 (human)): 100% | kinase still bound, per cent of control (MARK1 (human)): 24% | kinase still bound, per cent of control (MYLK3 (human)): 100% | kinase still bound, per cent of control (MYO3A (human)): 69% | kinase still bound, per cent of control (NEK1 (human)): 76% | kinase still bound, per cent of control (NTRK2 (human)): 82% | kinase still bound, per cent of control (PI4KB (human)): 100% | kinase still bound, per cent of control (PIM3 (human)): 92% | kinase still bound, per cent of control (PRKACA (human)): 1.6% | kinase still bound, per cent of control (PRKCQ (human)): 21% | kinase still bound, per cent of control (PTK2B (human)): 9% | kinase still bound, per cent of control (RIOK3 (human)): 5.1% | kinase still bound, per cent of control (RPS6KA5 KD2 (human)): 93% | kinase still bound, per cent of control (RPS6KA6 KD2 (human)): 67% | kinase still bound, per cent of control (RPS6KB1 (human)): 72% | kinase still bound, per cent of control (STK32B (human)): 1.1% | kinase still bound, per cent of control (STK39 (human)): 100% | kinase still bound, per cent of control (STK4 (human)): 42% | kinase still bound, per cent of control (VRK2 (human)): 100% | kinase still bound, per cent of control (WEE2 (human)): 100%

O=C(Nc1cccc(Nc2ncc(Br)c(NCCc3cnc[nH]3)n2)c1)N1CCCC1
kinase still bound, per cent of control (ACVR1 (human)): 76% | kinase still bound, per cent of control (ADCK3 (human)): 100% | kinase still bound, per cent of control (AKT2 (human)): 100% | kinase still bound, per cent of control (CAMK1D (human)): 4.6% | kinase still bound, per cent of control (CAMK2A (human)): 27% | kinase still bound, per cent of control (CDC42BPG (human)): 49% | kinase still bound, per cent of control (CDK4 CCND1 (human)): 0.25% | kinase still bound, per cent of control (CDK4 CCND3 (human)): 0.35% | kinase still bound, per cent of control (CDKL5 (human)): 1.8% | kinase still bound, per cent of control (CLK3 (human)): 74% | kinase still bound, per cent of control (EPHA5 (human)): 92% | kinase still bound, per cent of control (FGR (human)): 13% | kinase still bound, per cent of control (GRK7 (human)): 34% | kinase still bound, per cent of control (HIPK4 (human)): 2% | kinase still bound, per cent of control [1]: 0.25% | kinase still bound, per cent of control [2]: 0% | kinase still bound, per cent of control [3]: 15% | kinase still bound, per cent of control (MAP3K3 (human)): 0.3% | kinase still bound, per cent of control (MAP3K4 (human)): 47% | kinase still bound, per cent of control (MAPK1 (human)): 77% | kinase still bound, per cent of control (MAPK6 (human)): 5% | kinase still bound, per cent of control (MARK1 (human)): 0.45% | kinase still bound, per cent of control (MYLK3 (human)): 0.1% | kinase still bound, per cent of control (MYO3A (human)): 28% | kinase still bound, per cent of control (NEK1 (human)): 30% | kinase still bound, per cent of control (NTRK2 (human)): 0.45% | kinase still bound, per cent of control (PI4KB (human)): 35% | kinase still bound, per cent of control (PIM3 (human)): 69% | kinase still bound, per cent of control (PRKACA (human)): 0.95% | kinase still bound, per cent of control (PRKCQ (human)): 3.6% | kinase still bound, per cent of control (PTK2B (human)): 8.2% | kinase still bound, per cent of control (RIOK3 (human)): 0.5% | kinase still bound, per cent of control (RPS6KA5 KD2 (human)): 31% | kinase still bound, per cent of control (RPS6KA6 KD2 (human)): 10% | kinase still bound, per cent of control (RPS6KB1 (human)): 3.2% | kinase still bound, per cent of control (STK32B (human)): 100% | kinase still bound, per cent of control (STK39 (human)): 63% | kinase still bound, per cent of control (STK4 (human)): 12% | kinase still bound, per cent of control (VRK2 (human)): 12% | kinase still bound, per cent of control (WEE2 (human)): 36%
